# Results reported in publication PMC6466579, “Non-Mammalian Prdx6 Enzymes (Proteins with 1-Cys Prdx Mechanism) Display PLA2 Activity Similar to the Human Orthologue” (Antioxidants, 2019).
# Assays:
# [1] = molecular target: T1, AfPrx1 (Aspergillus fumigatus, UniProt Q4WPA3); experiment: PLA2 assay, [3H]DPPC liposomes, TLC and scintillation; type: biochemical
# T1 construct: gene AFUA_4G08580; cytosolic 1-Cys Prdx
# T1 sequence (Q4WPA3 1-213): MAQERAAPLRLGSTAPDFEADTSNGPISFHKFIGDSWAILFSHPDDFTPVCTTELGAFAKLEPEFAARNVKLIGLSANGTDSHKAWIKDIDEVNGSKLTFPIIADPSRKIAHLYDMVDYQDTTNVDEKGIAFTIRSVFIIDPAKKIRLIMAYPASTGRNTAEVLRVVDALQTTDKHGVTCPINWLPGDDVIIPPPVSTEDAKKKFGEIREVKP
# [2] = molecular target: T2, AfPrxC (Aspergillus fumigatus, UniProt B0Y9D7); experiment: as above; type: biochemical
# T2 construct: gene AFUB_080670
# T2 sequence (B0Y9D7 47-267): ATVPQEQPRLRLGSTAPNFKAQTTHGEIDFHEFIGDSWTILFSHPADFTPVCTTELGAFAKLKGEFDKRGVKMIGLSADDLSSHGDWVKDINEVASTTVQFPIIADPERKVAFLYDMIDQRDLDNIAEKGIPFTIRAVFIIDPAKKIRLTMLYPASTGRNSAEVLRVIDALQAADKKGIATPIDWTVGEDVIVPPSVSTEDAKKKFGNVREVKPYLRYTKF
smiles,measurement,setting,value
"CCCCCCCCCCCCCCCCOC[C@H](COCC(F)(F)F)OP(=O)(O)OC [MJ33, 1-hexadecyl-3-trifluoro-ethylglycero-sn-2-phosphomethanol]",inhibition at 200 µM,[1],~85%
same,inhibition at 200 µM,[2],~85%
